Source: article doi:10.1101/2025.11.18.689169v1 (bioRxiv, 2025)

What was measured:
[1] = free ICG; cited from earlier work
[2] = system: 4T1 mCherry mammary tumors; experiment: Live IVIS imaging of tumor accumulation and tumor-to-background ratio; format: in vivo, Balb/c mice; conditions: 50 nmole intravenous, after background cleared over time, day 2
[3] = system: 4T1 mouse breast cancer cells; experiment: Cellular uptake, confocal microscopy; format: cell-based; conditions: 4T1 cells, 10 µM ICG labeled PAs, 2 hours, 37°C, confocal microscope
[4] = system: 4T1 mCherry mammary tumors; experiment: Biodistribution by ICG fluorescence of tissue homogenates; format: in vivo, Balb/c mice; conditions: 50 nmole intravenous, tissue homogenates 2 days after injection

Row | Compound | blood circulation half-life [1] [min] | tumor-to-background ratio (TBR) [2] | cellular uptake / membrane retention [3] | tumor to liver ratio [4]
1 | CC1(C)C(/C=C/C=C/C=C/C=C2\N(CCCCS(=O)(=O)O)c3ccc4ccccc4c3C2(C)C)=[N+](CCCCS(=O)(=O)[O-])c2ccc3ccccc3c21 [ICG, indocyanine green] | < 5 |  |  | 
2 | GGGHGDCDD [C12] |  | 6 |  | 
3 | GGGHGDCDD [C16] |  | > 10 | significant retention in the membrane | 
4 | GGGHGDCDD [C18] |  | > 10 | significant retention in the membrane | ~3.3
